Values joined by “and” are separate entries in the source; they are usually repeats but may differ in a detail not shown here. Equal values may be shown once.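 Method: 48-hour compound exposure of cells in 96-well plates, five concentrations, linear interpolation of endpoints. The concentration for 50% growth inhibition is given as GI50. Definition used: TGI = concentration required for complete inhibition of growth.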
System: MDA-MB-468 breast
Assay: NCI tumour cell line growth inhibition, 48 h

| Compound | GI50 | TGI |
| --- | --- | --- |
| CN(C)C(=O)c1cc2cnc(Nc3ccc(-c4csc5c(=O)cc(N6CCOCC6)oc45)cc3)nc2n1C1CCCC1 | 122 nM | 0.397 µM |
| COc1ccc(Cl)cc1NC(=O)C(Br)C(Br)C(=O)O (stereo not drawn) | 567 nM | 2.27 µM |
| CCOP(=O)(OCC)OC[C@]12CCC(C)(C)C[C@H]1C1=CC[C@@H]3[C@@]4(C)C/C(=C\c5cccnc5)[C@H](OP(=O)(OCC)OCC)C(C)(C)[C@@H]4CC[C@@]3(C)[C@]1(C)CC2 | 1120 nM | 2.5 µM |
| COc1cccc2c1C(=O)c1c(O)c3c(c(O)c1C2=O)C[C@@](O)(C(=O)CO)C[C@@H]3OC1C[C@H](N)[C@H](O)[C@H](C)O1 (stereo partly drawn) | 25.3 nM | 0.123 µM |
| CCCCCCCCCCCCSC(=N)N | 6210 nM | 20.5 µM |
| Cc1cc(Cc2cc(C)cc(C(C)(C)C)c2O)c(O)c(C(C)(C)C)c1 | 11400 nM | 24.2 µM |
| C/C=C/CC(C)C(O)C1C(=O)NC(CC)C(=O)N(C)CC(=O)N(C)C(CC(C)C)C(=O)NC(C(C)C)C(=O)N(C)C(CC(C)C)C(=O)NC(C)C(=O)NC(C)C(=O)N(C)C(CC(C)C)C(=O)N(C)C(CC(C)C)C(=O)N(C)C(C(C)C)C(=O)N1C (stereo not drawn) | 872 nM | 6.63 µM |
| COC(=O)[C@]12CC[C@@H](C)[C@H](C)[C@@H]1C1=CC[C@@H]3[C@@]4(C)C=C(O)C(=O)[C@@]5(C)COC(=C54)C[C@@]3(C)[C@]1(C)CC2 | 4880 nM | 19.9 µM |
| Cc1cc(Nc2ncnc3ccc(NC4=NC(C)(C)CO4)cc23)ccc1Oc1ccn2ncnc2c1 | 1780 nM and 2180 nM | 12.7 µM and > 10 µM |
| CCN1c2ccccc2C(Cl)(c2ccc(N(C)C)cc2)c2ccccc21 | 3360 nM | 15.5 µM |
| O=c1[nH]cnc2[nH]ncc12 | 152000 nM | 2680 µM |
| O=C(Cc1cccc(OC(F)(F)F)c1)Nc1ccc(CCCCc2nnc(NC(=O)Cc3ccccn3)s2)nn1 | 7690 nM | 58.5 µM |
| COc1ccc2c(c1)C(=O)/C(=C/c1ncc([N+](=O)[O-])n1C)O2 | 1700 nM | 4.12 µM |
| O=c1cc(-c2ccccc2)[nH]n1-c1nc2ccccc2[nH]1 | 4300 nM | 45.9 µM |
| COc1ccc2nc3cc(Cl)ccc3c(NCCCNCCC(C)O)c2c1 (stereo not drawn) | 313 nM | 1.78 µM |
| Cc1c2c[n+](C(C)C)ccc2c(C)c2c1[nH]c1ccccc12 | 312 nM | 1.97 µM |
| C=CC(=O)N[C@H]1CCOC[C@H]1Nc1ncc2cc(-c3c(Cl)c(OC)cc(OC)c3Cl)ccc2n1 | 9160 nM | 44.7 µM |
| O=C(O)c1cc2cc(OCc3ccccc3)c(OCc3ccccc3)cc2[nH]1 | 17900 nM | 36.7 µM |
| O=C(Nc1ccc(Cl)cc1)c1cc(-c2ccc(Cl)cc2)c2sc(=O)[nH]c2n1 | 1730 nM | 6.62 µM |
| CSc1ccc2c3c(n(C[C@H](O)CO)c(=O)c2c1)-c1ccccc1C3=O | 1870 nM | 5.78 µM |
| O=C(Nc1ccccc1O)c1ccc(Oc2cccc(C(=O)Nc3ccccc3O)c2)cc1 | 2170 nM | 8.16 µM |
| COc1ccccc1/C=N\N=C(N/N=C/c1ccccc1OC)N/N=C/c1ccccc1OC | 3510 nM | 10.7 µM |

| Compound | GI50 | TGI |
| --- | --- | --- |
| O=C(Nc1ccc(Cl)c(C(F)(F)F)c1)Nc1ccc2c(ccn2C(=O)c2cccc(F)c2)c1 | 1830 nM | 4.96 µM |
| NS(=O)(=O)c1cccc(N=Cc2c(O)[nH]c3ccccc23)c1 | > 25000 nM | > 25 µM |
| C#CC(F)(F)[C@]1(O)CC[C@H]2[C@@H]3CCC4=CC(=O)CCC4=C3[C@@H](c3ccc(C(C)=O)cc3)C[C@@]21C | 7690 nM | 34.1 µM |
| COc1cc(-c2nc3sc4c(c3c(=O)[nH]2)CCCCCC4)cc(OC)c1OC | 676 nM | 3.01 µM |
| O=C(N/N=C/c1ccc([N+](=O)[O-])cc1)c1ccc2nc(-c3ccc(Cl)cc3)[nH]c2c1 | 1970 nM | 4.79 µM |
| CN1CCN(Cc2ccc(NC(=O)c3ccc(C#Cc4c(N)ncc5ccc(F)cc45)cc3)cc2C(F)(F)F)CC1 | 998 nM | 1.97 µM |
| c1cn2cc(-c3ccc4cn[nH]c4c3)nc(Nc3ccc(N4CCOCC4)cc3)c2n1 | 8590 nM | 32.4 µM |
| O=Nc1ccc2ccccc2c1O | 13400 nM | 34.9 µM |
| O=C(CCl)N1c2ccccc2Sc2ccc3ccccc3c21 | 351 nM | 1.46 µM |
| CC(=O)O/N=C1/C(c2c(O)[nH]c3cc(Br)ccc23)=Nc2ccccc21 | 1640 nM | 3.22 µM |
| N#CCc1ncc(-c2ccc(C(F)(F)F)cc2)c(NC2CCCCCC2)n1 | > 10000 nM | > 10 µM |
| Cn1cc(-c2cnc3ccc4ccc(CS(=O)(=O)NCc5ccccn5)cc4c(=O)c3c2)cn1 | 10900 nM | 29 µM |
| O=C(N/N=C/c1ccccc1O)C(=O)Nc1ccc(F)cc1 | 4410 nM | > 100 µM |
| COc1ccc2c(c1)C(c1ccccc1Cl)=Nc1c(n[nH]c1C)N2 | > 16800 nM | > 25 µM |
| NC1=NC(c2ccc(Cl)cc2)C2=C(N1)/C(=C/c1ccc(Cl)cc1)CCC2 (stereo not drawn) | 3490 nM | 13.9 µM |
| Cc1cc(C)c(O)c(CN(C)Cc2cc(Cl)cc(Cl)c2O)c1 | 2830 nM | 11.8 µM |
| C=C1C(=O)O[C@H]2[C@H]1CC/C(COC(=O)NCCc1c[nH]c3ccc(OC)cc13)=C\CC[C@@]1(C)O[C@@H]21 | 1190 nM | 2.91 µM |
| Cc1c(C)[n+](=O)c(C)c(C)n1[O-] | > 100000 nM | > 100 µM |
| COc1ccc(C(=O)c2cc3c(OC)c(OC)c(OC)cc3[nH]2)cc1 | 2640 nM | > 100 µM |
| CC(C)NC(=O)OCc1c(COC(=O)NC(C)C)c(-c2ccc(Cl)cc2)n2c1CCC2 | 928 nM | 2.5 µM |
| COc1cc(/C=C2\CN(C)C/C(=C\c3cc(CN4CCCCC4)c(O)c(OC)c3)C2=O)cc(CN2CCCCC2)c1O | 3790 nM | 14.7 µM |
| C=C1C(=O)O[C@H]2[C@H]1CC/C(COC(=O)CSCC(=O)OC/C1=C/CC[C@@]3(C)O[C@H]3[C@H]3OC(=O)C(=C)[C@@H]3CC1)=C\CC[C@@]1(C)O[C@@H]21 | 1420 nM | 3.5 µM |

— PubChem BioAssay (NCI)
